We go through 39 molecules from patent US8299056B2 (Signal Pharmaceuticals, LLC, priority 2008, dated 2012).

Molecules are shown by their SMILES.

For the assay, the target named is T1, Syk (Homo sapiens, UniProt P43405).
T1 construct: purchased Carna Biosciences
The assay is described as follows: Syk HTRF assay. The class given is biochemical. As to conditions: IC50 activity level, read-out: Activity Level. In outline:
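HTRF kinase assay in HEPES pH 7.6 buffer with MgCl2, DTT and Triton X100; start mix of 87.5 μM ATP and 80 nM biotinylated peptide, 1 h at room temperature. EDTA stop, then Eu-anti-phosphotyrosine/streptavidin-DyLight 647 detection, read as 665/615 nm emission ratio.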
(In general: Time-resolved FRET reads energy transfer from a long-lived donor to a nearby acceptor.)
In the case of `O[C@H]1CC[C@@H](Oc2cccc3nc(Nc4ccc(F)cc4)nn23)CC1` [Example 417, cis-4-(2-(4-fluorophenylamino)-[1,2,4]triazolo[1,5-a]pyridin-5-yloxy)cyclohexanol], the IC50 fell in the range of 1000 to 10000 nM.

Turning to `O[C@@H]1CC[C@H](Nc2cccc3nc(Nc4ccc(C(F)(F)F)cc4)nn23)C1` [Example 421, (1R,3S)-3-(2-(4-(trifluoromethyl)phenylamino)-[1,2,4]triazolo[1,5-a]pyridin-5-ylamino)cyclopentanol], the IC50 was in the range of 250 to 500 nM.

Turning to `N[C@H]1CC[C@@H](Oc2cccc3nc(Nc4ccc(C(F)(F)F)cc4)nn23)CC1` [Example 423, cis-5-(4-aminocyclohexyloxy)-N-(4-(trifluoromethyl)phenyl)-[1,2,4]triazolo[1,5-a]pyridin-2-amine], the IC50 was 500 to 1000 nM. As for `CNCc1nc2ccc(-c3cccc4nc(Nc5ccccc5)nn34)cc2o1` [Example 424, 5-(2-((methylamino)methyl)benzo[d]oxazol-6-yl)-N-phenyl-[1,2,4]triazolo[1,5-a]pyridin-2-amine], the IC50 lay in the range of 500 to 1000 nM.

With `OC(Cc1cccc2nc(Nc3ccc(F)cc3)nn12)C1CCNCC1` (stereo not drawn) [Example 425, 2-(2-(4-fluorophenylamino)-[1,2,4]triazolo[1,5-a]pyridin-5-yl)-1-(piperidin-4-yl)ethanol], the IC50 was in the range of 1000 to 10000 nM. Consider `CNC(=O)c1ccc(Nc2nc3cccc(-c4ccc5[nH]ncc5c4)n3n2)cc1` [Example 426, 4-(5-(1H-indazol-5-yl)-[1,2,4]triazolo[1,5-a]pyridin-2-ylamino)-N-methylbenzamide], for which the IC50 fell in the range of 0.005 to 250 nM. For `Fc1ccc(Nc2nc3cccc(NC4CCCCNC4)n3n2)cc1` (stereo not drawn) [Example 427, N^5-(azepan-3-yl)-N^2-(4-fluorophenyl)-[1,2,4]triazolo[1,5-a]pyridine-2,5-diamine], the IC50 lay in the range of 250 to 500 nM. For the molecule `c1ccc(Nc2nc3cccc(-c4ccc5nc(CN6CCCC6)[nH]c5c4)n3n2)cc1` [Example 428, N-phenyl-5-(2-(pyrrolidin-1-ylmethyl)-1H-benzo[d]imidazol-6-yl)-[1,2,4]triazolo[1,5-a]pyridin-2-amine], the IC50 is 0.005 to 250 nM. The result for `NC(=O)c1ccc(Nc2nc3cccc(N[C@H]4CC[C@@H](O)CC4)n3n2)cc1` [Example 429, cis-4-(5-(4-hydroxycyclohexylamino)-[1,2,4]triazolo[1,5-a]pyridin-2-ylamino)benzamide] reads 0.005 to 250 nM; that for `OC1(Cc2cccc3nc(Nc4ccc(F)cc4)nn23)CCNCC1` [Example 430, 4-((2-(4-fluorophenylamino)-[1,2,4]triazolo[1,5-a]pyridin-5-yl)methyl)piperidin-4-ol], 1000 to 10000 nM. For `OC(Cc1cccc2nc(Nc3ccc(F)cc3)nn12)c1ccccc1` (stereo not drawn) [Example 431, 2-(2-(4-fluorophenylamino)-[1,2,4]triazolo[1,5-a]pyridin-5-yl)-1-phenylethanol], the IC50 was 250 to 500 nM. Consider `CNC(=O)c1ccc(Nc2nc3cccc(-c4ccc5nn[nH]c5c4)n3n2)cc1` [Example 432, 4-(5-(1H-benzo[d][1,2,3]triazol-6-yl)-[1,2,4]triazolo[1,5-a]pyridin-2-ylamino)-N-methylbenzamide], for which the IC50 lay within 0.005 to 250 nM. Consider `c1cncc(Nc2nc3cccc(N[C@@H]4CCCNC4)n3n2)c1` [Example 434, (R)-N^5-(piperidin-3-yl)-N^2-(pyridin-3-yl)-[1,2,4]triazolo[1,5-a]pyridine-2,5-diamine], for which the IC50 is 1000 to 10000 nM. With `Cc1conc1-c1cccc2nc(Nc3ccccc3)nn12` [Example 435, 5-(4-methylisoxazol-3-yl)-N-phenyl-[1,2,4]triazolo[1,5-a]pyridin-2-amine] the figure was 1000 to 10000 nM; with `Fc1ccc(Nc2nc3cccc(-c4ccc5cn[nH]c5c4)n3n2)cc1` [Example 436, N-(4-fluorophenyl)-5-(1H-indazol-6-yl)-[1,2,4]triazolo[1,5-a]pyridin-2-amine], 0.005 to 250 nM. For `CNCc1nc2ccc(-c3cccc4nc(Nc5ccc(F)cc5)nn34)cc2[nH]1` [Example 437, N-(4-fluorophenyl)-5-(2-((methylamino)methyl)-1H-benzo[d]imidazol-6-yl)-[1,2,4]triazolo[1,5-a]pyridin-2-amine], the IC50 is 0.005 to 250 nM. With `c1ccc(Nc2nc3cccc(NC4CCOCC4)n3n2)cc1` [Example 438, N^2-phenyl-N^5-(tetrahydro-2H-pyran-4-yl)-[1,2,4]triazolo[1,5-a]pyridine-2,5-diamine], the IC50 is 1000 to 10000 nM. On to `Nc1n[nH]c2cc(-c3cccc4nc(Nc5ccccc5)nn34)ccc12` [Example 439, 5-(3-amino-1H-indazol-6-yl)-N-phenyl-[1,2,4]triazolo[1,5-a]pyridin-2-amine], for which the IC50 was in the range of 0.005 to 250 nM.

As for `CNCc1nc2ccc(-c3cccc4nc(Nc5ccc(C(F)(F)F)cc5)nn34)cc2[nH]1` [Example 440, 5-(2-((methylamino)methyl)-1H-benzo[d]imidazol-6-yl)-N-(4-(trifluoromethyl)phenyl)-[1,2,4]triazolo[1,5-a]pyridin-2-amine], the IC50 is 0.005 to 250 nM. Regarding `CNC(=O)c1ccc(Nc2nc3cccc(NC4CCOC4)n3n2)cc1` (stereo not drawn) [Example 441, N-methyl-4-(5-(tetrahydrofuran-3-ylamino)-[1,2,4]triazolo[1,5-a]pyridin-2-ylamino)benzamide], the IC50 was in the range of 1000 to 10000 nM. The result for `NC(=O)c1cccc(Cc2cccc3nc(Nc4ccccc4)nn23)c1` [Example 442, 3-((2-(phenylamino)-[1,2,4]triazolo[1,5-a]pyridin-5-yl)methyl)benzamide] reads 250 to 500 nM; that for `OCCNc1cc(-c2cccc3nc(Nc4ccccc4)nn23)ccn1` [Example 443, 2-(4-(2-(phenylamino)-[1,2,4]triazolo[1,5-a]pyridin-5-yl)pyridin-2-ylamino)ethanol], 0.005 to 250 nM.

Turning to `NCCOc1cc(-c2cccc3nc(Nc4ccccc4)nn23)ccn1` [Example 444, 5-(2-(2-aminoethoxy)pyridin-4-yl)-N-phenyl-[1,2,4]triazolo[1,5-a]pyridin-2-amine], the IC50 fell in the range of 250 to 500 nM. Consider `Nc1cc(-c2cccc3nc(Nc4ccccc4)nn23)ccn1` [Example 445, 5-(2-aminopyridin-4-yl)-N-phenyl-[1,2,4]triazolo[1,5-a]pyridin-2-amine], for which the IC50 fell in the range of 0.005 to 250 nM.

For the molecule `CN(C)c1cc(-c2cccc3nc(Nc4ccccc4)nn23)ccn1` [Example 446, 5-(2-(dimethylamino)pyridin-4-yl)-N-phenyl-[1,2,4]triazolo[1,5-a]pyridin-2-amine], the IC50 is 250 to 500 nM. For the molecule `NCCNc1cc(-c2cccc3nc(Nc4ccccc4)nn23)ccn1` [Example 447, N^1-(4-(2-(phenylamino)-[1,2,4]triazolo[1,5-a]pyridin-5-yl)pyridin-2-yl)ethane-1,2-diamine], the IC50 lay within 0.005 to 250 nM. For `c1cc(N[C@@H]2CCCNC2)n2nc(Nc3ccc4c(c3)CNC4)nc2c1` [Example 449], the IC50 was in the range of 0.005 to 250 nM. Turning to `Nc1n[nH]c2cc(Nc3nc4cccc(N[C@H]5CCCNC5)n4n3)ccc12` [Example 451, (S)-N^2-(3-amino-1H-indazol-6-yl)-N^5-(piperidin-3-yl)-[1,2,4]triazolo[1,5-a]pyridine-2,5-diamine], the IC50 fell in the range of 0.005 to 250 nM.

As to `NC(=O)c1ccc(Cc2cccc3nc(Nc4ccccc4)nn23)cc1` [Example 452, 4-((2-(phenylamino)-[1,2,4]triazolo[1,5-a]pyridin-5-yl)methyl)benzamide], the IC50 was in the range of 1000 to 10000 nM. Take `O[C@H]1CC[C@@H](Nc2cccc3nc(Nc4ccc(C(F)(F)F)cc4)nn23)CC1` [Example 453, cis-4-(2-(4-(trifluoromethyl)phenylamino)-[1,2,4]triazolo[1,5-a]pyridin-5-ylamino)cyclohexanol]: the IC50 lay within 0.005 to 250 nM. With `c1cc(N[C@H]2CCCNC2)n2nc(Nc3ccc4nn[nH]c4c3)nc2c1` [Example 454, (S)-N^2-(1H-benzo[d][1,2,3]triazol-6-yl)-N^5-(piperidin-3-yl)-[1,2,4]triazolo[1,5-a]pyridine-2,5-diamine] the figure was 0.005 to 250 nM; with `c1cc(N[C@@H]2CCCNC2)n2nc(Nc3ccc4nn[nH]c4c3)nc2c1` [Example 455, (R)-N^2-(1H-benzo[d][1,2,3]triazol-6-yl)-N^5-(piperidin-3-yl)-[1,2,4]triazolo[1,5-a]pyridine-2,5-diamine], 250 to 500 nM; with `CNC(=O)c1ccc(Nc2nc3cccc(NC4CCOCC4)n3n2)cc1` [Example 456, N-methyl-4-(5-(tetrahydro-2H-pyran-4-ylamino)-[1,2,4]triazolo[1,5-a]pyridin-2-ylamino)benzamide], 1000 to 10000 nM. For `Nc1noc2ccc(-c3cccc4nc(Nc5ccccc5)nn34)cc12` [Example 457, 5-(2-(phenylamino)-[1,2,4]triazolo[1,5-a]pyridin-5-yl)benzo[d]isoxazol-3-amine], the IC50 is 0.005 to 250 nM. Turning to `C[C@@H](CN)Cc1cccc2nc(Nc3ccccc3)nn12` [Example 458, (R)-5-(3-amino-2-methylpropyl)-N-phenyl-[1,2,4]triazolo[1,5-a]pyridin-2-amine], the IC50 fell in the range of 1000 to 10000 nM. As for `C[C@H](Cc1cccc2nc(Nc3ccccc3)nn12)C(N)=O` [Example 460, (R)-2-methyl-3-(2-(phenylamino)-[1,2,4]triazolo[1,5-a]pyridin-5-yl)propanamide], the IC50 was 1000 to 10000 nM.

As for `Fc1ccc(Nc2nc3cccc(N[C@H]4CCCNC4)n3n2)cc1` [Example 465, (S)-N^2-(4-fluorophenyl)-N^5-(piperidin-3-yl)-[1,2,4]triazolo[1,5-a]pyridine-2,5-diamine], the IC50 is 0.005 to 250 nM. Consider `Cn1ncc2ccc(Nc3nc4cccc(N[C@H]5CCCNC5)n4n3)cc21` [Example 466, (S)-N^2-(1-methyl-1H-indazol-6-yl)-N^5-(piperidin-3-yl)-[1,2,4]triazolo[1,5-a]pyridine-2,5-diamine], for which the IC50 was 0.005 to 250 nM.

Turning to `c1cc(N[C@@H]2CCCNC2)n2nc(Nc3ccc4cn[nH]c4c3)nc2c1` [Example 467, (R)-N^2-(1H-indazol-6-yl)-N^5-(piperidin-3-yl)-[1,2,4]triazolo[1,5-a]pyridin-2,5-diamine], the IC50 is 0.005 to 250 nM.
